Like-named read-outs stand apart in the source and are kept apart here.
Assays:
[1] = test system: Rabbit Psoas myofibrils (skeletal myosin ATPase); experiment: Myofibril ATPase assay, rabbit psoas (skeletal) myofibrils; format: biochemical; conditions: rabbit psoas myofibrils
Summary of the method: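 Rabbit psoas skeletal myofibrils in PIPES/CaCl2/EGTA pCa buffer, pH 7.0. ATPase rate followed by PK-LDH-coupled NADH loss at 340 nm, read every 1.5–2 min for 75 min. Slopes normalized to vehicle (100%) and fitted to a 4-parameter logistic; values are Y75 (25% inhibition) or Y125 (25% activation) concentrations.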

[2] = test system: Porcine atria myofibrils (atrial myosin ATPase); experiment: Myofibril ATPase assay, porcine atria myofibrils; format: biochemical; conditions: porcine atria myofibrils
Summary of the method: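 Coupled PK-LDH reaction links ADP from myosin ATPase to NADH loss, read at 340 nm every 1.5-2 min for 75 min. Slopes (mAU/min) normalized to vehicle-only wells (100%) and fit to a 4-parameter logistic; Y75 is the concentration cutting activity by 25%, Y125 is reported for activators.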

[3] = biological target: T1, Porcine ventricle myofibrils (ventricular myosin ATPase) (Sus scrofa, UniProt P79293); experiment: Myofibril ATPase assay, porcine ventricle myofibrils; format: biochemical, porcine (Yucatan minipigs); conditions: porcine ventricle myofibrils
T1 construct: Myofibrils from porcine cardiac muscle was isolated from the left ventricle of Yucatan minipigs; tissue Exemplar Genetics; host or cells: left ventricle of Yucatan minipigs, myofibrils prepared in house
T1 sequence (P79293 whole entry): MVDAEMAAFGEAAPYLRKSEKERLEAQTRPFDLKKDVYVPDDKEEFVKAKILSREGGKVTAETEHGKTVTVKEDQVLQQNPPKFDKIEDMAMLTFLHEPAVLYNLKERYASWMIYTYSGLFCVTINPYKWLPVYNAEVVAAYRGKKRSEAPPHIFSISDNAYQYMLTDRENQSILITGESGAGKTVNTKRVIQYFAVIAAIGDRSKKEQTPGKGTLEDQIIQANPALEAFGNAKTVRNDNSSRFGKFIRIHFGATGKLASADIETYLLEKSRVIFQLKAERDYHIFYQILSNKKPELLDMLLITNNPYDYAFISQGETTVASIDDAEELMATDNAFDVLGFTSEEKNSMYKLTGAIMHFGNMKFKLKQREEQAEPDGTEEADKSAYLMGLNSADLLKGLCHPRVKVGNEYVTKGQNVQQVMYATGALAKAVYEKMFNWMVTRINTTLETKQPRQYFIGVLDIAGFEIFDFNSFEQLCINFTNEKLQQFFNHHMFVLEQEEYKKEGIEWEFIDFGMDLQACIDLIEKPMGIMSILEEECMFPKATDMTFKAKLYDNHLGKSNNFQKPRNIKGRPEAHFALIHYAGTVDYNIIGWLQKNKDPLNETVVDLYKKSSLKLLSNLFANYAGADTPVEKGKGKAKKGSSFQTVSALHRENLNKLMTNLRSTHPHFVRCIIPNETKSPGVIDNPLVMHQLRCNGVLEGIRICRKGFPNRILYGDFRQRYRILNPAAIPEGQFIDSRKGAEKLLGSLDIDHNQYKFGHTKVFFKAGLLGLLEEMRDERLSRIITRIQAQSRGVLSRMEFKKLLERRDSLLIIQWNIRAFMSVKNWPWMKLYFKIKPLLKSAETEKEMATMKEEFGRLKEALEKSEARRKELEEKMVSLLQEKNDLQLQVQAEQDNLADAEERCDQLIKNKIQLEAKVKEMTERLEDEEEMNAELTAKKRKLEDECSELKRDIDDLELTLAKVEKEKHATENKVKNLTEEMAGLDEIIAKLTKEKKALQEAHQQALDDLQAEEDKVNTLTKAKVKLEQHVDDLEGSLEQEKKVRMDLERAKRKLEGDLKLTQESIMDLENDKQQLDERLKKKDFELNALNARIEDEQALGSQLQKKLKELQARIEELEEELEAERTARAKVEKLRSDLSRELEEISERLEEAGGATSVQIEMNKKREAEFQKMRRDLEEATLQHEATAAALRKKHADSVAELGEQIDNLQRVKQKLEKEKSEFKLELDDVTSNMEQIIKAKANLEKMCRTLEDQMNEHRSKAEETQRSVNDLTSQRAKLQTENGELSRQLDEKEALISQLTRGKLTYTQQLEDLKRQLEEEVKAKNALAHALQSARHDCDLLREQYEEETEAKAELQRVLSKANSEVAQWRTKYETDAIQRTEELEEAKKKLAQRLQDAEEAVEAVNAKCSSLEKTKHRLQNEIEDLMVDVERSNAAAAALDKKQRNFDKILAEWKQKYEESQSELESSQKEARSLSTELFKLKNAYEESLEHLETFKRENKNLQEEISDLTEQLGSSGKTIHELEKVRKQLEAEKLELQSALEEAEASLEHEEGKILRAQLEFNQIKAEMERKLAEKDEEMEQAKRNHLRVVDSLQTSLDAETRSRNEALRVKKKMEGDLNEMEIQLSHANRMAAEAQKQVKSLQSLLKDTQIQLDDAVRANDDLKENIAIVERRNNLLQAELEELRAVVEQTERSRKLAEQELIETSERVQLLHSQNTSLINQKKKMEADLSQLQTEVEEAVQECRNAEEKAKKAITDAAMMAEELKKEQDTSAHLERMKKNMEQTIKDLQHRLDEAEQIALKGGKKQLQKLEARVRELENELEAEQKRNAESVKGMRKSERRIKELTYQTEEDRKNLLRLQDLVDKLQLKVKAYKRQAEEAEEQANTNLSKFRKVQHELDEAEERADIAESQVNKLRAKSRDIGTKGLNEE
Summary of the method: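 Myofibrils isolated from Yucatan minipig left ventricle; coupled PK/LDH NADH assay, pCa buffer pH 7.0, kinetic A340 reads over 75 min. Vehicle-normalized slopes fit 4PL; Y75/Y125 derived.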

SD rats = experiment: Echocardiography of systolic cardiac performance (HR, FS, LV volumes, SWT) after a single oral dose; format: in vivo; conditions: Rattus norvegicus, single dose 10 mg/kg PO, ~2 hrs post-dosing, isoflurane-anesthetized
Procedure: Example 2. Echocardiogram Data
Experiments were performed to evaluate the in vivo ability of the compounds of the disclosure to modulate systolic cardiac performance. Non-invasively echocardiography was used to assess cardiac indicators in isoflurane-anesthetized SD rats. A set of conscious rats were treated with either vehicle control (0 mg/kg PO; n=78) or a single dose of a test compound (10 mg/kg PO, n=2 to 6/compound) via oral gavage. Cardiac function/geometry were recorded at two separate time-points/days: once prior to dosing (e.g., at baseline, day −2) and at ˜2 hrs post-dosing (day 0). In these experiments, heart rate (HR), echocardiography-derived indices of left-ventricular systolic performance, as well as dimensions/volumes were measured using a high-frequency transducer and parasternal long-axis transthoracic views (Vevo3100, VisualSonic). LV fractional shortening (FS), an index of systolic function, was defined as the end-diastole normalized change in internal dimensions divided by the difference in diameter (LVid) of the left ventricle between end-systole (LVids) and end-diastole (LVidd) (e.g., FS=100·[LVidd−LVids]/LVidd). LV volumes were derived using the Teichholz formula (LVV=[7·LVid^3]/[2.4+LVid]). In addition, a systolic wall-thickening index (SWT) was also evaluated. SWT is defined as the relative ratio (end-diastole normalized) of left-ventricular (anterior and posterior) wall-thickness change during systole; e.g., SWT={[(anterior LV wall thickness in systole−anterior LV wall thickness in diastole)]+[(posterior LV wall thickness in systole−posterior LV wall thickness in diastole)]}/{2*diastolic thickness}. In all cases, blood samples were taken (via either tail-vein micro-sampling or cardiac-puncture) at the time of each echocardiographic examination in order to establish pharmacokinetic (PK)/pharmacodynamics (PD) relationships.

[4] = EDV change vs vehicle, read-out: EDV % vs. VEH
[5] = LV fractional shortening change vs vehicle, read-out: FS % vs. VEH
[6] = SWT change vs vehicle, read-out: SWT % vs. VEH
[7] = heart rate change vs vehicle, read-out: HR % vs. VEH
[8] = Y75 value (75% activity relative to no compound)
[9] = ‡ Y125 value, not a Y75 value (125% activity relative to no compound)

| SMILES | Skeletal EC25 ([1]; Y75 value (no ‡ mark)) [µM] | Atrial EC25 ([2]; Y75 value (no ‡ mark)) [µM] | Ventricular EC25 ([3]; Y75 value (no ‡ mark)) [µM] | Skeletal EC25 ([1]; Y75 value) [µM] | Atrial EC25 [2, 8] [µM] | Ventricular EC25 ([3]; Y75 value) [µM] | Skeletal EC25 [1, 9] | Atrial EC25 [2, 9] | Ventricular EC25 [3, 9] | change in vivo at 10 mg/kg (SD rats; [4]) [%] | change in vivo at 10 mg/kg (SD rats; [5]) [%] | change in vivo at 10 mg/kg (SD rats; [6]) [%] | change in vivo at 10 mg/kg (SD rats; [7]) [%] |
| --- | --- | --- | --- | --- | --- | --- | --- | --- | --- | --- | --- | --- | --- |
| C[C@@H](NC(=O)Cc1cc2c(F)c(F)ccc2[nH]c1=O)c1ncc(C#N)cn1 (single isomer, unassigned) [compound 2071] | 2.93 | 1.07 | 2.62 | – | – | – | – | – | – | 1 to 20 | 1 to 20 | 11 to 20 | 1 to 20 |
| Cc1c(CC(=O)N[C@H](C)c2ncc(C#N)cc2F)c(=O)[nH]c2ccc(F)c(C3CC3)c12 [compound 27] | 0.14 | 0.23 | 0.24 | – | – | – | – | – | – | 11 to 20 | 11 to 20 | ≥ 21 | 1 to 20 |
| Cc1c(CC(=O)N[C@H](C)c2ncc(C#N)cc2F)c(=O)[nH]c2ccc(F)cc12 [compound 1106] | 0.37 | 0.54 | 0.49 | – | – | – | – | – | – | 1 to 10 | 21 to 40 | 21 to 40 | 1 to 10 |
| Cc1c(CC(=O)N[C@@H](C)c2cnc(C#N)cn2)c(=O)[nH]c2ccc(F)c(F)c12 [compound 1146, (S)—N-(1-(5-cyanopyrazin-2-yl)ethyl)-2-(5,6-difluoro-4-methyl-2-oxo-1,2-dihydroquinolin-3-yl)acetamide] | 0.21 | 0.14 | 0.19 | – | – | – | – | – | – | 1 to 20 | 21 to 40 | 21 to 40 | 1 to 10 |
| C[C@@H](NC(=O)Cc1cc2c(F)c(F)ccc2[nH]c1=O)c1ncc(C#N)cc1F [compound 35] | 0.09 | 0.08 | 0.15 | – | – | – | – | – | – | 11 to 20 | 1 to 20 | 0 | 1 to 10 |
| Cc1c(CC(=O)N[C@H](C)c2ncc(C#N)cn2)c(=O)[nH]c2ccc(F)c(F)c12 [compound 1123, (R)—N-(1-(5-cyanopyrimidin-2-yl)ethyl)-2-(5,6-difluoro-4-methyl-2-oxo-1,2-dihydroquinolin-3-yl)acetamide] | 0.58 | 0.48 | 1.37 | – | – | – | – | – | – | 21 to 40 | 21 to 40 | 41 to 60 | 1 to 10 |
| C[C@H](NC(=O)Cc1cc2c(F)c(F)ccc2[nH]c1=O)c1ncc(C#N)cc1F [compound 36] | 0.01 | 0.02 | 0.05 | – | – | – | – | – | – | 1 to 10 | 41 to 60 | 21 to 40 | 11 to 20 |
| Cc1c(C(F)(F)C(=O)N[C@H](C)c2ncc(C#N)cc2F)c(=O)[nH]c2ccc(F)cc12 (single isomer, unassigned) [compound 2606] | 0.10 | 0.08 | 0.77 | – | – | – | – | – | – | – | – | – | – |
| Cc1c(CC(=O)N[C@@H](C)c2ccc(C#N)nn2)c(=O)[nH]c2cccc(C#N)c12 [compound 1039] | 0.08 | 0.22 | 0.67 | – | – | – | – | – | – | – | – | – | – |
| Cc1c(C(F)(F)C(=O)N[C@@H](CO)c2ncc(C#N)cc2F)c(=O)[nH]c2ccnc(C#N)c12 (single isomer, unassigned) [compound 3504] | – | – | – | 1.04 | 0.77 | 4.90 | – | – | – | – | – | – | – |
| C[C@@H](NC(=O)Cc1c(C2CC2)c2cc(F)ccc2[nH]c1=O)c1ccc(C#N)cc1F [compound 73] | 0.02 | 100.00 | 100.00 | – | – | – | – | – | – | – | – | – | – |
| CCOc1nccc2[nH]c(=O)c([C@H](C)C(=O)N[C@@H](C)c3ccc(F)cc3F)c(C(F)(F)F)c12 (single isomer, unassigned) [compound 415] | – | – | – | 0.13 | 2.22 | 12.58 | – | – | – | – | – | – | – |
| C[C@H](NC(=O)C(F)(F)c1cc2cc(F)ccc2[nH]c1=O)c1cccc(C#N)n1 (single isomer, unassigned) [compound 2582] | – | – | – | – | – | – | 75.10‡ μM | 100.00‡ μM | 68.39‡ μM | – | – | – | – |

Now from value to compound, other results behind:

| Skeletal EC25 ([1]; Y75 value (no ‡ mark)) [µM] | Atrial EC25 ([2]; Y75 value (no ‡ mark)) [µM] | Ventricular EC25 ([3]; Y75 value (no ‡ mark)) [µM] | Skeletal EC25 ([1]; Y75 value) [µM] | Atrial EC25 [2, 8] [µM] | Ventricular EC25 ([3]; Y75 value) [µM] | Skeletal EC25 [1, 9] | Atrial EC25 [2, 9] | Ventricular EC25 [3, 9] | SMILES | change in vivo at 10 mg/kg (SD rats; [4]) [%] | change in vivo at 10 mg/kg (SD rats; [5]) [%] | change in vivo at 10 mg/kg (SD rats; [6]) [%] | change in vivo at 10 mg/kg (SD rats; [7]) [%] |
| --- | --- | --- | --- | --- | --- | --- | --- | --- | --- | --- | --- | --- | --- |
| 0.01 | 0.08 | 0.04 | – | – | – | – | – | – | Cc1c(CC(=O)N[C@@H](C)c2ncc(C#N)cc2F)c(=O)[nH]c2ccc(F)c(F)c12 [compound 42] | 1 to 10 | 21 to 40 | ≥ 21 | 0 |
| 0.01 | 0.04 | 0.10 | – | – | – | – | – | – | Cc1c(CC(=O)N[C@@H](C)c2ccc(F)cc2F)c(=O)[nH]c2ccc(F)c(C#N)c12 [compound 83] | 1 to 20 | 11 to 20 | 11 to 20 | 1 to 10 |
| 0.07 | 0.13 | 0.45 | – | – | – | – | – | – | Cc1c(CC(=O)N[C@H](C)c2ncc(C#N)cc2F)c(=O)[nH]c2ccc(F)c(F)c12 [compound 41] | 1 to 20 | 1 to 20 | ≥ 21 | 1 to 20 |
| – | – | – | 0.01 | 0.07 | 0.14 | – | – | – | Cc1c(CC(=O)N[C@@H](C)c2ccc(F)cc2F)c(=O)[nH]c2ccnc(C#N)c12 [compound 355, 2-(5-cyano-4-methyl-2-oxo-1H-1,6-naphthyridin-3-yl)-N-[(1S)-1-(2,4-difluorophenyl)ethyl]acetamide] | 1 to 10 | 11 to 20 | 1 to 10 | 1 to 10 |
| – | – | – | 0.02 | 0.08 | 0.19 | – | – | – | Cc1nccc2[nH]c(=O)c(CC(=O)N[C@@H](C)c3ccc(C#N)cc3F)c(C)c12 (single isomer, unassigned) [compound 256] | 1 to 20 | 1 to 20 | 1 to 20 | 1 to 10 |
| 0.14 | 0.07 | 0.34 | – | – | – | – | – | – | Cc1c(CC(=O)N[C@@H](C)c2ncc(C#N)cn2)c(=O)[nH]c2ccc(F)c(F)c12 [compound 1124, (S)—N-(1-(5-cyanopyrimidin-2-yl)ethyl)-2-(5,6-difluoro-4-methyl-2-oxo-1,2-dihydroquinolin-3-yl)acetamide] | 1 to 10 | 21 to 40 | 1 to 20 | 1 to 10 |
| 7.24 | 2.52 | 55.56 | – | – | – | – | – | – | Cc1c(CC(=O)N[C@@H](C)c2ccc(F)cc2F)c(=O)[nH]c2ccc(O)c(C#N)c12 [compound 84] | – | – | – | – |
| 0.04 | 0.11 | 1.53 | – | – | – | – | – | – | Cc1c(CC(=O)N[C@@H](C)c2ccc(C#N)cn2)c(=O)[nH]c2cccc(F)c12 [compound 54] | – | – | – | – |

From US12448369B2 (Edgewise Therapeutics, Inc., priority 2023, dated 2025)
